# Data: patent US20170044100A1, “INHIBITORS OF DRUG-RESISTANT MYCOBACTERIUM TUBERCULOSIS” (THE JOHNS HOPKINS UNIVERSITY, priority 2014, published 2017)
# Where two headings read alike, the source gives them in different places.
# Assays:
# [1] = system: M. tuberculosis strain H37Rv; experiment: microbe, parasite or virus in culture; format: cell-based, Mycobacterium tuberculosis; set-up: MICMABA: unit not given here
# [2] = system: M. tuberculosis H37Rv; experiment: microbe, parasite or virus in culture; format: cell-based, Mycobacterium tuberculosis; set-up: MICBD / MBCBD: unit not given here
# [3] = system: Vero cells; experiment: Cytotoxicity assay on Vero cells (alamar blue); conditions: Chlorocebus sabaeus, Vero
# [4] = Cytotoxicity assay on Vero cells (alamar blue); conditions: African green monkey, Vero cells (ATCC CCL-81)
# [5] = system: M. tuberculosis H37Rv; format: in vivo, BALB/c mice
# [6] = Mycobacterium tuberculosis, H37RV
# [7] = Mycobacterium tuberculosis, parental H37Rv strain, read-out: MIC for H37Rv
# [8] = Mycobacterium tuberculosis, H37RV, read-out: MIC for H37Rv
compound,measurement,setting,value
"Cc1ccc(NC(=O)c2cc3ccccc3[nH]2)cc1F [Compound 27, N-(3-Fluoro-4-methylphenyl)-1H-indole-2-carboxamide]",MICMABA,"[1]; H37Rv, MABA, Table 9",128
same,MICBD,"[2]; H37Rv, broth dilution, Table 9",128
"Cc1cc(C)c2cc(C(=O)N3CCCCC3)[nH]c2c1 [Compound 17, (4,6-Dimethyl-11-1-indo1-2-yl)(piperidin-1-yl)methanone]",MIC,[1],>499 µM
BM212,MIC for H37Rv,[1]; parental H37Rv strain,2 µg/mL
"Cc1cc(C)c2c(C(=O)NC34CC5CC(CC(C5)C3)C4)c[nH]c2c1 [Compound 43, N-(1-Adamantyl)-4,6-dimethyl-1H-indole-3-carboxamide]",MICMABA,"[1]; H37Rv, MABA, Table 9",>64
Capreomycin,MIC for H37Rv,[1]; parental H37Rv strain,1 µg/mL
"O=C(NC12CC3CC(CC(C3)C1)C2)c1cc2ccc(O)cc2[nH]1 [Compound 32, N-(1-Adamantyl)-6-hydroxy-1H-indole-2-carboxamide]",MICMABA,"[1]; H37Rv, MABA, Table 9",2
same,IC50,[3]; read-out: IC50 Vero Cells,16 µg/mL
"COc1ccc2cc(C(=O)NC34CC5CC(CC(C5)C3)C4)[nH]c2c1 [Compound 30, N-(1-Adamantyl)-6-methoxy-1H-indole-2-carboxamide]",MICMABA,"[1]; H37Rv, MABA, Table 9",0.25
same,IC50,"[3]; read-out: IC50 Vero Cells, Vero cells, Table 9",64 µg/mL
"Cc1cc(C)c2cc(C(=O)NC3C4CC5CC(C4)CC3C5)[nH]c2c1 (stereo not shown) [Compound 14, N-(2-Adamantyl)-4,6-dimethyl-1H-indole-2-carboxamide]",MICMABA,"[1]; H37Rv, MABA, Table 9",0.0039
same,MIC,[1]; [6],0.012 µM
same,IC50 at 72 h,[4],> 200 µM
same,IC50,[3]; read-out: IC50 Vero Cells,> 64 µg/mL
"Cc1cc(C)c2cc(C(=O)NC3CCCCC3)n(C)c2c1 [Compound 18, N-Cyclohexyl-1,4,6-trimethyl-11-1-indole-2-carboxamide]",MICMABA,[1],128
same,MIC,[1]; [6],450 µM
same,MICBD,"[2]; H37Rv, broth dilution, Table 9",128
"Cc1cc(C)c2cc(C(=O)NC34CC5CC(CC(C5)C3)C4)[nH]c2c1 [Compound 13, N-(1-Adamantyl)-4,6-dimethyl-1H-indole-2-carboxamide]",MICMABA,"[1]; H37Rv, MABA, Table 9",0.0019
same,MIC,[1]; [6],0.012 µM
same,IC50 at 72 h,[4],> 200 µM
same,IC50,[3]; read-out: IC50 Vero Cells,> 64 µg/mL
"N-(2,3,5 -methyl, 4-dimethyl)-6-bromo-1H-indole-2-carboxamide [BB]",MICMABA,"[1]; H37Rv, MABA, Table 9",0.0039- 0.0078
"Cc1cc(C)c2cc(C(=O)N(C)C3CCCCC3)[nH]c2c1 [Compound 16, N-Cyclohexyl-N,4,6-trimethyl-/H-indole-2-carboxamide]",MIC,[1],450 µM
same,MICMABA,[1],32
same,MICBD,[2],128
"Cc1cc(C)c2cc(C(=O)NC3CCN(C)CC3)[nH]c2c1 [Compound 7, N-(1-Methyl-4-piperidinyl)-4,6-dimethyl-1H-indole-2-carboxamide]",MICMABA,[1],128
same,MIC,[1]; [6],448 µM
"Cc1cc(C)c2cc(C(=O)Nc3ccncc3)[nH]c2c1 [Compound 6, N-(4-Pyridinyl)-4,6-dimethyl-1H-indole-2-carboxamide]",MICMABA,"[1]; H37Rv, MABA, Table 9",32
same,MIC,[1]; [6],240 µM
same,MICBD,"[2]; H37Rv, broth dilution, Table 9",64
"O=C(NC1CCCCCCC1)c1cc2c(Cl)cc(Cl)cc2[nH]1 [Compound 70, N-Cyclooctyl-4,6-dichloro-1H-indole-2-carboxamide]",MICMABA,"[1]; H37Rv, MABA, Table 9",0.0039
"COc1c(N2C[C@@H]3CCCN[C@@H]3C2)c(F)cc2c(=O)c(C(=O)O)cn(C3CC3)c12 [Moxifloxacin, reference compound]",MIC,[1]; [7],0.0625 to 0.125 µg/mL
"C[C@H]1COc2c(N3CCN(C)CC3)c(F)cc3c(=O)c(C(=O)O)cn1c23 [Levofloxacin, reference compound]",MIC,[1]; [7],0.25 µg/mL
"Cc1cc(C)c2cc(C(=O)Nc3ccc(C)c(F)c3)[nH]c2c1 [Compound 5, N-(3-Fluoro-4-methylphenyl)-4,6-dimethyl-1H-indole-2-carboxamide]",MICMABA,"[1]; H37Rv, MABA, Table 9",0.25
same,MIC,[1]; [6],1.7 µM
same,IC50 at 72 h,[4],> 200 µM
same,IC50,[3]; read-out: IC50 Vero Cells,> 64 µg/mL
same,MBCBD,"[2]; H37Rv, broth dilution, Table 9",8
same,MICBD,"[2]; H37Rv, broth dilution, Table 9",0.5
CC(C)=CCC/C(C)=C/CNCCNC1C2CC3CC(C2)CC1C3 (stereo not shown) [SQ109],MIC,[1]; [7],0.25 µg/mL
NCC[C@H](O)C(=O)N[C@@H]1C[C@H](N)[C@@H](O[C@H]2O[C@H](CN)[C@@H](O)[C@H](O)[C@H]2O)[C@H](O)[C@H]1O[C@H]1O[C@H](CO)[C@@H](O)[C@H](N)[C@H]1O [Amikacin],MIC,[1]; [7],1 µg/mL
"NNC(=O)c1ccncc1 [Isoniazid, reference compound]",MICMABA,"[1]; H37Rv, MABA, Table 9",0.04
same,MIC,[1]; [6],0.29 µM
same,MIC,[1]; [7],0.04 µg/mL
same,"Mean lung CFU counts (standard deviation), Day 7","[5]; isoniazid 10 mg/kg oral gavage daily (5 days per week), Day 7",5.508 (0.124)
same,"Mean lung CFU counts (standard deviation), Day 14","[5]; isoniazid 10 mg/kg oral gavage daily, Day 14",5.266 (0.089)
same,"Mean lung CFU counts (standard deviation), Day 28","[5]; isoniazid 10 mg/kg oral gavage daily, Day 28",4.561 (0.088)
"Cc1cc(C)c2cc(C(=O)NCC3CCCCC3)[nH]c2c1 [Compound 15, N-(Cyclohexylmethyl)-4,6-dimethyl-1H-indole-2-carboxamide]",MICMABA,"[1]; H37Rv, MABA, Table 9",0.25
same,MIC,[1]; [6],0.88 µM
same,IC50 at 72 h,[4],> 200 µM
same,IC50,[3]; read-out: IC50 Vero Cells,> 64 µg/mL
same,MBCBD,"[2]; H37Rv, broth dilution, Table 9",0.25
same,MICBD,"[2]; H37Rv, broth dilution, Table 9",0.25
"O=C(NC1CCCCC1)c1cc2ccccc2[nH]1 [Compound 26, N-Cyclohexyl-1H-indole-2-carboxamide]",MICMABA,"[1]; H37Rv, MABA, Table 9",128
same,MICBD,"[2]; H37Rv, broth dilution, Table 9",>128
"Cc1cc(C)c2c(C(=O)NC3CCCCCC3)c[nH]c2c1 [Compound 41, N-Cycloheptyl-4,6-dimethyl-1H-indole-3-carboxamide]",MICMABA,"[1]; H37Rv, MABA, Table 9",>64
"O=C(NC1CCCCCCC1)c1cc2c(F)cc(F)cc2[nH]1 [Compound 29, N-Cyclooctyl-4,6-difluoro-1H-indole-2-carboxamide]","activity in comparison to the 4,6-dimethyl analog (1h)",[1]; H37Rv MIC relative to 1h,8 fold
same,MICMABA,"[1]; H37Rv, MABA, Table 9",0.031
"Cc1cc(C)c2c(C(=O)NC3CCCCCCC3)c[nH]c2c1 [Compound 42, N-Cyclooctyl-4,6-dimethyl-1H-indole-3-carboxamide]",MICMABA,"[1]; H37Rv, MABA, Table 9",>64
"Cc1cc(C)c2cc(C(=O)NC3CCN(C(C)C)CC3)[nH]c2c1 [Compound 8, N-(1-Isopropyl-4-piperidinyl)-4,6-dimethyl-1H-indole-2-carboxamide]",MICMABA,"[1]; H37Rv, MABA, Table 9",64
same,MIC,[1]; [6],204 µM
"NC[C@H]1O[C@H](O[C@H]2[C@H](O)[C@@H](O[C@H]3O[C@H](CO)[C@@H](O)[C@H](N)[C@H]3O)[C@H](N)C[C@@H]2N)[C@H](O)[C@@H](O)[C@@H]1O [Kanamycin, reference compound]",MIC,[1]; [8],2 µg/mL
"Cc1cc(C)c2cc(C(=O)NC3CC3)[nH]c2c1 [Compound 10, N-Cyclopropyl-4,6-dimethyl-1H-indole-2-carboxamide]",MICMABA,"[1]; H37Rv, MABA, Table 9",64
same,MIC,[1]; [6],561 µM
same,MICBD,"[2]; H37Rv, broth dilution, Table 9",128
"Cc1cc(C)c2cc(C(=O)NC3CCCN(C)CC3)[nH]c2c1 (stereo not shown) [Compound 9, N-(1-Methyl-4-azepanyl)-4,6-dimethyl-1H-indole-2-carboxamide]",MICMABA,"[1]; H37Rv, MABA, Table 9",128
same,MIC,[1]; [6],428 µM
CO[C@H]1/C=C/O[C@@]2(C)Oc3c(C)c(O)c4c(O)c(c(/C=N/N5CCN(C)CC5)c(O)c4c3C2=O)NC(=O)/C(C)=C\C=C\[C@H](C)[C@H](O)[C@@H](C)[C@@H](O)[C@@H](C)[C@H](OC(C)=O)[C@@H]1C [Rifampin],MIC,[1]; [8],0.125 µg/mL
CC[C@@H](CO)NCCN[C@@H](CC)CO [Ethambutol],MIC,[1]; [7],1 µg/mL
"Cc1cc(C)c2c(C(=O)NC3C4CC5CC(C4)CC3C5)c[nH]c2c1 (stereo not shown) [Compound 44, N-(2-Adamantyl)-4,6-dimethyl-1H-indole-3-carboxamide]",MICMABA,"[1]; H37Rv, MABA, Table 9",>64
